From PubChem BioAssay (NCI) come the findings set out here.

Test systems include MDA-N; RPMI-8226 leukemia; EKVX NSCLC; RXF 393 renal; SR leukemia; OVCAR-5 ovarian; SF-268 CNS; COLO 205 colon; A549 NSCLC.
What all share (assay): inhibition of tumour cell growth, NCI panel, 48 h

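These data come from cells grown in 96-well plates and exposed to compound for 48 hours at five concentrations. TGI denotes the concentration required for complete inhibition of growth.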

Regarding `Nn1c(Cc2ccc(Cl)cc2)n[nH]c1=O`, the TGI with MDA-N, in the assay on RPMI-8226 leukemia, in the assay on EKVX NSCLC, in the assay on RXF 393 renal, in the assay with SR leukemia and in the assay with OVCAR-5 ovarian was more than 100 µM in each case. Besides, the TGI in the assay with SF-268 CNS, with COLO 205 colon and in the assay on A549 NSCLC was more than 100 µM each time.
Consider `Cn1ccnc1CCc1ccc(F)cc1F`, for which the TGI in the assay on MDA-N, with RPMI-8226 leukemia, in the assay on EKVX NSCLC, with RXF 393 renal, with SR leukemia and in the assay on OVCAR-5 ovarian was more than 100 µM in each case. For the same compound, the TGI in the assay with SF-268 CNS, with COLO 205 colon and in the assay on A549 NSCLC was more than 100 µM throughout.
For the compound `N#CCCNCCN(CCN(C(=O)Nc1ccccc1)c1ccccc1)C(=O)Nc1ccccc1`, the TGI with MDA-N, in the assay with RPMI-8226 leukemia, in the assay on EKVX NSCLC, with RXF 393 renal, in the assay with SR leukemia and in the assay with OVCAR-5 ovarian was more than 100 µM each time. The values for the TGI in the assay with SF-268 CNS, in the assay on COLO 205 colon and with A549 NSCLC were more than 100 µM, 46.3 µM and more than 100 µM, respectively.
On to `O=C(Nc1ccccc1)c1cc2c(cc1Cl)Sc1nccn1S2(=O)=O`, for which the TGI with MDA-N was more than 100 µM; in the assay on RPMI-8226 leukemia it was 70.5 µM; in the assay on EKVX NSCLC it was 60.5 µM; in the assay with RXF 393 renal it was more than 71.2 µM; with SR leukemia it was more than 73 µM; with OVCAR-5 ovarian, more than 86.3 µM. The TGI in the assay with SF-268 CNS is more than 89.8 µM; in the assay on COLO 205 colon, more than 56.6 µM; in the assay with A549 NSCLC, more than 100 µM.
Take `COc1cc2c(cc1OC)C1CN3C(=O)CCC3C(O)C1c1cc(OC)c(OC)cc1-2` (configuration not stated): the TGI in the assay on MDA-N, in the assay with RPMI-8226 leukemia, in the assay with EKVX NSCLC, in the assay with RXF 393 renal, in the assay with SR leukemia and in the assay with OVCAR-5 ovarian was more than 100 µM in each case. Further, the TGI with SF-268 CNS, in the assay on COLO 205 colon and in the assay with A549 NSCLC was more than 100 µM throughout.
With `C[C@]12CC[C@H]3[C@@H](CCC4=CC(=O)C=C[C@@]43O)[C@@H]1CCC2=O`, the TGI in the assay on MDA-N, with RPMI-8226 leukemia, in the assay on EKVX NSCLC, with RXF 393 renal, with SR leukemia and with OVCAR-5 ovarian was more than 100 µM throughout. For the same compound, the TGI in the assay on COLO 205 colon and in the assay with A549 NSCLC was more than 100 µM throughout.
In the case of `CC1=NN(c2cccc(Cl)c2)C2(C1)C(Cl)C(=O)N2c1nc2ccccc2s1` (configuration not stated), the TGI in the assay with MDA-N was more than 100 µM; with RPMI-8226 leukemia, 41.6 µM; in the assay on EKVX NSCLC, more than 100 µM; in the assay with RXF 393 renal, 59.1 µM; with SR leukemia, 34.3 µM; in the assay with OVCAR-5 ovarian, more than 100 µM. In addition, the TGI in the assay on SF-268 CNS was more than 100 µM; with COLO 205 colon, 31.9 µM; with A549 NSCLC it was 76.2 µM.
Take `Cc1c(-c2ccccc2)c(C#N)c2nnn(-c3ccccc3)c(=O)n12`: the TGI in the assay on MDA-N, in the assay on RPMI-8226 leukemia, with EKVX NSCLC, in the assay on RXF 393 renal, in the assay on SR leukemia and in the assay with OVCAR-5 ovarian was more than 100 µM in each case. Besides, the TGI in the assay with SF-268 CNS, in the assay with COLO 205 colon and in the assay on A549 NSCLC was more than 100 µM in each case.
On to `CN(Cc1c2ccccc2cc2ccccc12)S(=O)(=O)c1ccc(-c2c3nc(c(-c4ccc(S(=O)(=O)N(C)Cc5c6ccccc6cc6ccccc56)cc4)c4ccc([nH]4)c(-c4ccc(S(=O)(=O)N(C)Cc5c6ccccc6cc6ccccc56)cc4)c4nc(c(-c5ccc(S(=O)(=O)N(C)Cc6c7ccccc7cc7ccccc67)cc5)c5ccc2[nH]5)C=C4)C=C3)cc1`, for which the TGI in the assay on MDA-N, with RPMI-8226 leukemia, in the assay with EKVX NSCLC, in the assay on RXF 393 renal, in the assay with SR leukemia and in the assay with OVCAR-5 ovarian was more than 100 µM each time. Besides, the TGI with SF-268 CNS, in the assay with COLO 205 colon and with A549 NSCLC was more than 100 µM each time.
As to `Cc1cccc2c1C(=O)C1(Cc3ccccc3C1=O)C2` (configuration not stated), the TGI in the assay on MDA-N, in the assay on RPMI-8226 leukemia, with EKVX NSCLC, with RXF 393 renal, in the assay with SR leukemia and in the assay with OVCAR-5 ovarian was more than 100 µM each time. Besides, the TGI with SF-268 CNS, in the assay on COLO 205 colon and in the assay on A549 NSCLC was more than 100 µM each time.
Regarding `COc1c(-c2cc(C)c(Cl)c(=O)[nH]2)c(O)c(OC)c2occc12`, the TGI in the assay on MDA-N, in the assay on RPMI-8226 leukemia, in the assay with EKVX NSCLC, in the assay on RXF 393 renal, in the assay with SR leukemia and with OVCAR-5 ovarian was more than 100 µM throughout. In addition, the TGI with SF-268 CNS, in the assay on COLO 205 colon and in the assay on A549 NSCLC was more than 100 µM in each case.
As for `O=C1COC(c2ccccc2O)=NN1CCCN1CCCC1`, the TGI in the assay on MDA-N, in the assay with RPMI-8226 leukemia, with EKVX NSCLC, in the assay on RXF 393 renal, in the assay on SR leukemia and in the assay with OVCAR-5 ovarian was more than 100 µM throughout. The TGI in the assay on SF-268 CNS, in the assay on COLO 205 colon and in the assay with A549 NSCLC was more than 100 µM each time.
For the compound `CC(C)(C)c1cc(C(O)(C(=O)O)C(=O)O)cc(C(C)(C)C)c1O`, the TGI in the assay with MDA-N, in the assay with RPMI-8226 leukemia, in the assay with EKVX NSCLC, in the assay on RXF 393 renal, with SR leukemia and with OVCAR-5 ovarian was more than 100 µM each time. Besides, the TGI in the assay on SF-268 CNS, with COLO 205 colon and in the assay on A549 NSCLC was more than 100 µM in each case.
With `Brc1ccc2c(-c3nc(-c4c[nH]c5ccccc45)cs3)c[nH]c2c1`, the TGI with MDA-N is more than 100 µM; in the assay with RPMI-8226 leukemia, more than 100 µM; in the assay on EKVX NSCLC, more than 100 µM; in the assay on RXF 393 renal, more than 68.7 µM; with SR leukemia, more than 82.3 µM; with OVCAR-5 ovarian it was more than 100 µM. Moreover, the TGI was more than 100 µM in the assay with SF-268 CNS, more than 79.7 µM in the assay with COLO 205 colon and 74.6 µM with A549 NSCLC.
Take `COC(=O)c1c(OC(C)=O)ccc2c1c1c(OC(C)=O)c3ccccc3c(OC(C)=O)c1n2Cc1cc(OC)cc(OC)c1`: the TGI is 81.4 µM in the assay with MDA-N; 20.8 µM in the assay on RPMI-8226 leukemia; 26.7 µM in the assay on EKVX NSCLC; more than 100 µM in the assay with RXF 393 renal; more than 100 µM in the assay with SR leukemia; more than 100 µM with OVCAR-5 ovarian. In addition, the TGI in the assay on SF-268 CNS, with COLO 205 colon and with A549 NSCLC was more than 100 µM throughout.
Regarding `COCn1c(C)c(C)c2c(=O)oc(=O)[nH]c21`, the TGI in the assay with MDA-N, in the assay on RPMI-8226 leukemia, with EKVX NSCLC, with RXF 393 renal, with SR leukemia and in the assay on OVCAR-5 ovarian was more than 100 µM each time. Besides, the TGI in the assay with SF-268 CNS, in the assay with COLO 205 colon and in the assay on A549 NSCLC was more than 100 µM throughout.
As to `O=C1NN=C(c2ccc(Cl)cc2)CC1C1C(=O)N(c2ccccc2)N=C1c1ccccc1` (configuration not stated), the TGI is more than 100 µM in the assay with MDA-N; more than 100 µM with RPMI-8226 leukemia; more than 100 µM in the assay with EKVX NSCLC; 70.9 µM in the assay with RXF 393 renal; more than 100 µM with SR leukemia; 80.7 µM in the assay with OVCAR-5 ovarian. Further, the TGI with SF-268 CNS, in the assay with COLO 205 colon and in the assay on A549 NSCLC was more than 100 µM in each case.
On to `O=c1c2ccccc2oc2c1ccc1ncccc12`, for which the TGI with MDA-N was more than 100 µM; in the assay on RPMI-8226 leukemia, more than 100 µM; in the assay on EKVX NSCLC, 96.9 µM; in the assay on RXF 393 renal, 44.6 µM; in the assay on SR leukemia, more than 100 µM; with OVCAR-5 ovarian, 16.1 µM. Also, the values for the TGI in the assay on SF-268 CNS, in the assay on COLO 205 colon and in the assay on A549 NSCLC were 78.2 µM, 94.4 µM and 22.2 µM, respectively.
On to `Cc1ccccc1N=C(N)NC#N`, for which the TGI in the assay on MDA-N, with RPMI-8226 leukemia, with EKVX NSCLC, in the assay with RXF 393 renal, in the assay with SR leukemia and with OVCAR-5 ovarian was more than 100 µM throughout. Also, the TGI in the assay with SF-268 CNS, with COLO 205 colon and with A549 NSCLC was more than 100 µM throughout.
As to `CSC1=Nc2ccccc2-c2nc(-c3ccccc3)cc(-c3ccccc3)c2C1`, the TGI is more than 100 µM in the assay on MDA-N; more than 100 µM with RPMI-8226 leukemia; more than 100 µM in the assay on EKVX NSCLC; 45 µM with RXF 393 renal; more than 100 µM with SR leukemia; more than 100 µM in the assay with OVCAR-5 ovarian. For the same compound, the TGI in the assay with COLO 205 colon and in the assay on A549 NSCLC was more than 100 µM throughout.
Take `Cc1cc(NS(=O)(=O)c2ccc(NC(=O)c3ccc4nc5ccccc5c(Nc5ccc(S(=O)(=O)N=C(N)N)cc5)c4c3)cc2)no1`: the TGI with MDA-N came out at 41.4 µM; in the assay with RPMI-8226 leukemia, 71.9 µM; in the assay with EKVX NSCLC, 30 µM; in the assay with RXF 393 renal, 31.1 µM; in the assay with SR leukemia, 46.7 µM; with OVCAR-5 ovarian, 31.8 µM. In addition, the TGI in the assay with SF-268 CNS stood at 37.3 µM; in the assay on COLO 205 colon, 38.5 µM; in the assay on A549 NSCLC it was 31.4 µM.
